# In PMC5218480 (PLoS ONE, 2017):
# Test system: MV-4-11 cells
# Assay: Gene expression microarray analysis (Affymetrix PrimeView) and GSEA
# Format: cell-based, human
# Parameters: RFU PODN (11730768_x_at) / Fold change /veh PODN (11730768_x_at) / RFU LINC00158 (11744669_a_at) / Fold change /veh LINC00158 (11744669_a_at) / RFU DUSP10 (11751237_a_at) / Fold change /veh DUSP10 (11751237_a_at) / RFU ID3 (11757404_x_at) / Fold change /veh ID3 (11757404_x_at) / RFU PLEKHG5 (11737974_s_at) / Fold change /veh PLEKHG5 (11737974_s_at) / RFU LRRC4B (11730491_at) / Fold change /veh LRRC4B (11730491_at) / RFU GIMAP4 (11747438_a_at) / Fold change /veh GIMAP4 (11747438_a_at) / RFU KRT8 (11758183_x_at) / Fold change /veh KRT8 (11758183_x_at) / RFU CNN1 (11734310_a_at) / Fold change /veh CNN1 (11734310_a_at) / RFU VPS37D (11726825_at) / Fold change /veh VPS37D (11726825_at) / RFU C10orf10 (11716522_x_at) / Fold change /veh C10orf10 (11716522_x_at) / RFU KIR2DL2 /// KIR2DL4 /// KIR2DL5A /// KIR2DL5B /// KIR2DS1 /// KIR2DS2 /// KIR2DS3 /// KIR2DS4 /// KIR3DL3 /// KIR3DL3 /// KIR3DS1 (11738374_at) / Fold change /veh KIR2DL2 /// KIR2DL4 /// KIR2DL5A /// KIR2DL5B /// KIR2DS1 /// KIR2DS2 /// KIR2DS3 /// KIR2DS4 /// KIR3DL3 /// KIR3DL3 /// KIR3DS1 (11738374_at) / RFU C1QL1 (11718748_at) / Fold change /veh C1QL1 (11718748_at) / RFU TMPRSS4 (11747572_a_at) / Fold change /veh TMPRSS4 (11747572_a_at) / RFU HAMP (11756126_x_at) / Fold change /veh HAMP (11756126_x_at) / RFU RNFT2 (11725882_a_at) / Fold change /veh RNFT2 (11725882_a_at) / RFU NR4A2 (11747474_a_at) / Fold change /veh NR4A2 (11747474_a_at) / RFU ABCC12 (11746883_a_at) / Fold change /veh ABCC12 (11746883_a_at) / RFU TMEM136 (11760407_x_at) / Fold change /veh TMEM136 (11760407_x_at) / RFU CLDN22 /// WWC2 (11732394_at) / Fold change /veh CLDN22 /// WWC2 (11732394_at) / RFU HLA-DPB1 (11760878_x_at) / Fold change /veh HLA-DPB1 (11760878_x_at) / RFU SPINT1 (11716480_a_at) / Fold change /veh SPINT1 (11716480_a_at) / RFU GAP43 (11754022_s_at) / Fold change /veh GAP43 (11754022_s_at) / RFU A4GNT (11735810_at) / Fold change /veh A4GNT (11735810_at) / RFU PRB3 (11715151_x_at) / Fold change /veh PRB3 (11715151_x_at) / RFU TUBB4B (11761932_at) / Fold change /veh TUBB4B (11761932_at) / RFU CAPN14 (11732068_a_at) / Fold change /veh CAPN14 (11732068_a_at) / RFU TMCC2 (11721928_a_at) / Fold change /veh TMCC2 (11721928_a_at) / RFU IRGQ (11745062_a_at) / Fold change /veh IRGQ (11745062_a_at) / RFU FAM174B (11720279_a_at) / Fold change /veh FAM174B (11720279_a_at) / RFU TMPRSS4 (11748680_a_at) / Fold change /veh TMPRSS4 (11748680_a_at) / RFU FAM212B (11763350_a_at) / Fold change /veh FAM212B (11763350_a_at) / RFU PLEKHG5 (11743358_a_at) / Fold change /veh PLEKHG5 (11743358_a_at) / RFU ZSCAN30 (11745921_a_at) / Fold change /veh ZSCAN30 (11745921_a_at) / RFU CMKLR1 (11741424_a_at) / Fold change /veh CMKLR1 (11741424_a_at) / RFU LOC101060620 /// MAPK8IP1 (11723275_at) / Fold change /veh LOC101060620 /// MAPK8IP1 (11723275_at) / RFU SPTSSB (11747773_x_at) / Fold change /veh SPTSSB (11747773_x_at) / RFU PRSS12 (11739890_at) / Fold change /veh PRSS12 (11739890_at) / RFU BIN1 (11741810_x_at) / Fold change /veh BIN1 (11741810_x_at) / RFU WNT11 (11732464_a_at) / Fold change /veh WNT11 (11732464_a_at) / RFU C10orf10 (11716521_a_at) / Fold change /veh C10orf10 (11716521_a_at) / RFU C5orf56 (11738089_at) / Fold change /veh C5orf56 (11738089_at) / RFU CYB561 (11721691_x_at) / Fold change /veh CYB561 (11721691_x_at) / RFU ANKRD19P (11752326_a_at) / Fold change /veh ANKRD19P (11752326_a_at) / RFU OR2T12 /// OR2T33 /// OR2T8 (11738714_s_at) / Fold change /veh OR2T12 /// OR2T33 /// OR2T8 (11738714_s_at) / RFU VCAN (11748164_a_at) / Fold change /veh VCAN (11748164_a_at) / RFU JSRP1 (11732532_at) / Fold change /veh JSRP1 (11732532_at) / RFU KRTAP10-11 (11738290_x_at) / Fold change /veh KRTAP10-11 (11738290_x_at) / RFU MYO3A (11730013_a_at) / Fold change /veh MYO3A (11730013_a_at) / RFU EBF3 (11725865_a_at) / Fold change /veh EBF3 (11725865_a_at) / RFU CAMK2N1 (11719241_x_at) / Fold change /veh CAMK2N1 (11719241_x_at) / RFU C5orf56 (11738088_a_at) / Fold change /veh C5orf56 (11738088_a_at) / RFU OLFML3 (11715873_a_at) / Fold change /veh OLFML3 (11715873_a_at) / RFU LOC100653217 /// NTM (11731650_a_at) / Fold change /veh LOC100653217 /// NTM (11731650_a_at) / RFU MAPK11 (11762145_a_at) / Fold change /veh MAPK11 (11762145_a_at) / RFU FIZ1 (11724087_x_at) / Fold change /veh FIZ1 (11724087_x_at) / RFU OASL (11726364_x_at) / Fold change /veh OASL (11726364_x_at) / RFU SOX15 (11748057_x_at) / Fold change /veh SOX15 (11748057_x_at) / RFU CD79A (11719716_a_at) / Fold change /veh CD79A (11719716_a_at) / RFU HIST1H1D (11736915_at) / Fold change /veh HIST1H1D (11736915_at) / RFU CASKIN2 (11723855_a_at) / Fold change /veh CASKIN2 (11723855_a_at) / RFU LOC730098 (11760151_x_at) / Fold change /veh LOC730098 (11760151_x_at) / RFU OR4N2 (11742367_at) / Fold change /veh OR4N2 (11742367_at) / RFU PRRT2 (11749266_a_at) / Fold change /veh PRRT2 (11749266_a_at) / RFU SNX32 (11753110_a_at) / Fold change /veh SNX32 (11753110_a_at) / RFU CDHR5 (11726645_a_at) / Fold change /veh CDHR5 (11726645_a_at) / RFU RCAN1 (11760418_a_at) / Fold change /veh RCAN1 (11760418_a_at) / RFU FAM167A (11723789_a_at) / Fold change /veh FAM167A (11723789_a_at) / RFU FAM26E (11764081_at) / Fold change /veh FAM26E (11764081_at) / RFU ISYNA1 (11749810_s_at) / Fold change /veh ISYNA1 (11749810_s_at) / RFU ACY1 (11761880_at) / Fold change /veh ACY1 (11761880_at) / RFU 11764098_at / Fold change /veh 11764098_at / RFU SAMD14 (11745864_x_at) / Fold change /veh SAMD14 (11745864_x_at) / RFU NPB (11741838_a_at) / Fold change /veh NPB (11741838_a_at) / RFU TMPRSS6 (11731388_a_at) / Fold change /veh TMPRSS6 (11731388_a_at) / RFU KRTAP10-2 (11738614_at) / Fold change /veh KRTAP10-2 (11738614_at) / RFU ARHGAP8 /// PRR5-ARHGAP8 (11727945_x_at) / Fold change /veh ARHGAP8 /// PRR5-ARHGAP8 (11727945_x_at) / RFU KRTAP5-7 /// NADSYN1 (11734609_at) / Fold change /veh KRTAP5-7 /// NADSYN1 (11734609_at) / RFU RASL12 (11751679_a_at) / Fold change /veh RASL12 (11751679_a_at) / RFU CDKN2B (11736163_a_at) / Fold change /veh CDKN2B (11736163_a_at) / RFU PRF1 (11729649_at) / Fold change /veh PRF1 (11729649_at) / RFU, ZNF638 /// ZNF638-IT1 / Fold change vs veh, ZNF638 /// ZNF638-IT1 / RFU, PANK3 / Fold change vs veh, PANK3 / RFU, SH3YL1 / Fold change vs veh, SH3YL1 / RFU, ZEB2 / Fold change vs veh, ZEB2 / RFU, NRIP1 / Fold change vs veh, NRIP1 / RFU, PTTG1IP / Fold change vs veh, PTTG1IP / RFU, CAPN2 / Fold change vs veh, CAPN2 / RFU, MED14 / Fold change vs veh, MED14 / RFU, SNORA58 / Fold change vs veh, SNORA58 / RFU, C1orf63 / Fold change vs veh, C1orf63 / RFU, LRRFIP1 / Fold change vs veh, LRRFIP1 / RFU, NDUFAF7 / Fold change vs veh, NDUFAF7 / RFU, SLC12A2 / Fold change vs veh, SLC12A2 / RFU, IBTK / Fold change vs veh, IBTK / RFU, ESF1 / Fold change vs veh, ESF1 / Fold change vs veh, TMEM50B / RFU, TAOK1 / Fold change vs veh, TAOK1 / RFU, ACBD3 / Fold change vs veh, ACBD3 / RFU, TMA16 / Fold change vs veh, TMA16 / RFU, RWDD3 / Fold change vs veh, RWDD3 / RFU, BCAT1 / Fold change vs veh, BCAT1 / RFU, EDEM3 / Fold change vs veh, EDEM3 / RFU, TMEM33 / Fold change vs veh, TMEM33 / RFU, WDR75 / Fold change vs veh, WDR75 / RFU, AHCTF1 / Fold change vs veh, AHCTF1 / RFU, TFRC / Fold change vs veh, TFRC / RFU, ZDHHC17 / Fold change vs veh, ZDHHC17 / RFU, NOM1 / Fold change vs veh, NOM1 / RFU, ARL8B / Fold change vs veh, ARL8B / RFU, ZBTB11 / Fold change vs veh, ZBTB11 / RFU, TAMM41 / Fold change vs veh, TAMM41 / RFU, KIAA1704 /// LOC100996395 / Fold change vs veh, KIAA1704 /// LOC100996395 / RFU, ING1 / Fold change vs veh, ING1 / RFU, TRMT61B / Fold change vs veh, TRMT61B / RFU, FUBP3 / Fold change vs veh, FUBP3 / RFU, TP53 / Fold change vs veh, TP53 / RFU, TNKS2 / Fold change vs veh, TNKS2 / RFU, ZFP14 / Fold change vs veh, ZFP14 / RFU, ACTR2 / Fold change vs veh, ACTR2 / RFU, PPP3R1 / Fold change vs veh, PPP3R1 / RFU, PIK3R1 / Fold change vs veh, PIK3R1 / RFU, HNRNPA1 / Fold change vs veh, HNRNPA1 / RFU, RNF170 / Fold change vs veh, RNF170 / RFU, ZNF28 / Fold change vs veh, ZNF28 / RFU, RNGTT / Fold change vs veh, RNGTT / RFU, OGT / Fold change vs veh, OGT / RFU, BRD1 / Fold change vs veh, BRD1 / RFU, MARS / Fold change vs veh, MARS / RFU, ZNF655 / Fold change vs veh, ZNF655 / RFU, FAHD1 / Fold change vs veh, FAHD1 / RFU, BDP1 / Fold change vs veh, BDP1 / RFU, LRRCC1 / Fold change vs veh, LRRCC1 / RFU, ARID1A / Fold change vs veh, ARID1A / RFU, ZNF146 / Fold change vs veh, ZNF146 / RFU, ZNF330 / Fold change vs veh, ZNF330 / RFU, GPN3 / Fold change vs veh, GPN3 / RFU, C9orf123 / Fold change vs veh, C9orf123 / RFU, N4BP2L2 / Fold change vs veh, N4BP2L2 / RFU, ARFIP1 / Fold change vs veh, ARFIP1 / RFU, FAM179B / Fold change vs veh, FAM179B / RFU, BCL10 / Fold change vs veh, BCL10 / RFU, UHRF1BP1L / Fold change vs veh, UHRF1BP1L / RFU, BET1 / Fold change vs veh, BET1 / RFU, CNOT2 / Fold change vs veh, CNOT2 / RFU, ZNF268 / Fold change vs veh, ZNF268 / Fold change vs veh, ZNF507 / RFU, DGCR2 / Fold change vs veh, DGCR2 / RFU, WDSUB1 / Fold change vs veh, WDSUB1 / Fold change vs veh, HSP90B1 /// MIR3652 / RFU, ADSS / Fold change vs veh, ADSS / RFU, GK / Fold change vs veh, GK / RFU, ZNF148 / Fold change vs veh, ZNF148 / RFU, TAF9 / Fold change vs veh, TAF9 / RFU, SLC1A5 / Fold change vs veh, SLC1A5 / RFU, SLMO2 / Fold change vs veh, SLMO2 / RFU, ABCC4 / Fold change vs veh, ABCC4 / RFU, LOC101060439 /// RAP1B / Fold change vs veh, LOC101060439 /// RAP1B / RFU, RFX7 / Fold change vs veh, RFX7 / RFU, GTPBP10 / Fold change vs veh, GTPBP10 / RFU, CNEP1R1 / Fold change vs veh, CNEP1R1 / RFU, BIVM-ERCC5 /// ERCC5 / Fold change vs veh, BIVM-ERCC5 /// ERCC5 / RFU, ILF3 / Fold change vs veh, ILF3 / RFU 11762660_at / Fold change /veh 11762660_at / RFU VCAN (11757783_s_at) / Fold change /veh VCAN (11757783_s_at) / RFU DDX43 (11728927_at) / Fold change /veh DDX43 (11728927_at) / RFU KRT8 (11758188_x_at) / Fold change /veh KRT8 (11758188_x_at) / RFU NKD1 (11759106_at) / Fold change /veh NKD1 (11759106_at) / RFU SRD5A1 (11742802_a_at) / Fold change /veh SRD5A1 (11742802_a_at) / RFU TPSAB1 /// TPSB2 (11721975_s_at) / Fold change /veh TPSAB1 /// TPSB2 (11721975_s_at) / RFU GSTM3 (11746129_a_at) / Fold change /veh GSTM3 (11746129_a_at) / RFU IL23R (11737362_x_at) / Fold change /veh IL23R (11737362_x_at) / RFU TMEM51 (11727254_a_at) / Fold change /veh TMEM51 (11727254_a_at) / RFU PIWIL2 (11732686_x_at) / Fold change /veh PIWIL2 (11732686_x_at) / RFU ORM1 (11744905_x_at) / Fold change /veh ORM1 (11744905_x_at) / RFU CCDC152 (11743942_at) / Fold change /veh CCDC152 (11743942_at) / RFU ECM1 (11717891_a_at) / Fold change /veh ECM1 (11717891_a_at) / RFU IL23R (11748794_a_at) / Fold change /veh IL23R (11748794_a_at) / RFU TNFAIP8L3 (11732012_x_at) / Fold change /veh TNFAIP8L3 (11732012_x_at) / RFU MBOAT4 (11741988_at) / Fold change /veh MBOAT4 (11741988_at) / RFU 11764193_at / Fold change /veh 11764193_at / RFU TMEM53 (11763286_at) / Fold change /veh TMEM53 (11763286_at) / RFU MAGEB2 (11727129_at) / Fold change /veh MAGEB2 (11727129_at) / RFU TMEM200A (11744735_a_at) / Fold change /veh TMEM200A (11744735_a_at) / RFU CCDC152 (11751479_a_at) / Fold change /veh CCDC152 (11751479_a_at) / RFU FAM211A (11726209_a_at) / Fold change /veh FAM211A (11726209_a_at) / RFU RGS16 (11746705_a_at) / Fold change /veh RGS16 (11746705_a_at) / RFU VCAN (11755009_s_at) / Fold change /veh VCAN (11755009_s_at) / RFU RHOB (11743442_s_at) / Fold change /veh RHOB (11743442_s_at) / RFU RGS16 (11720943_a_at) / Fold change /veh RGS16 (11720943_a_at) / RFU RGS16 (11720944_at) / Fold change /veh RGS16 (11720944_at) / RFU, VPS4B / Fold change vs veh, VPS4B / RFU, CREB1 / Fold change vs veh, CREB1 / RFU, DNAJC13 / Fold change vs veh, DNAJC13 / RFU, GNAQ / Fold change vs veh, GNAQ / RFU, CDK5R1 / Fold change vs veh, CDK5R1 / RFU, ZRANB3 / Fold change vs veh, ZRANB3 / RFU, CUL4A / Fold change vs veh, CUL4A / RFU, CCNY / Fold change vs veh, CCNY / RFU, UFL1 / Fold change vs veh, UFL1 / RFU, COG3 / Fold change vs veh, COG3 / RFU, DIAPH2 / Fold change vs veh, DIAPH2 / RFU, SKA2 / Fold change vs veh, SKA2 / RFU, AFF3 / Fold change vs veh, AFF3 / RFU, LMF1 / Fold change vs veh, LMF1 / RFU, IPO11 / Fold change vs veh, IPO11 / RFU, DFFB / Fold change vs veh, DFFB / RFU, FOXP1 / Fold change vs veh, FOXP1 / RFU, CARD8 / Fold change vs veh, CARD8 / RFU, STRN3 / Fold change vs veh, STRN3 / RFU, ADK / Fold change vs veh, ADK / RFU, RASSF2 / Fold change vs veh, RASSF2 / RFU, WIPF1 / Fold change vs veh, WIPF1 / RFU, LARP1B / Fold change vs veh, LARP1B / RFU, RASA1 / Fold change vs veh, RASA1 / RFU, RB1 / Fold change vs veh, RB1 / RFU, PPFIA1 / Fold change vs veh, PPFIA1 / RFU, MAT2A / Fold change vs veh, MAT2A / RFU, CCT5 / Fold change vs veh, CCT5 / RFU, WDR92 / Fold change vs veh, WDR92 / RFU, CUX1 / Fold change vs veh, CUX1 / RFU, TTC7A / Fold change vs veh, TTC7A / RFU, TMEM135 / Fold change vs veh, TMEM135 / RFU, DEPTOR / Fold change vs veh, DEPTOR / RFU, CPM / Fold change vs veh, CPM / RFU, DNAJB6 / Fold change vs veh, DNAJB6 / RFU, CACNA2D3 / Fold change vs veh, CACNA2D3 / RFU, DTX4 / Fold change vs veh, DTX4 / RFU, TFCP2 / Fold change vs veh, TFCP2 / RFU, GMCL1 /// GMCL1P1 / Fold change vs veh, GMCL1 /// GMCL1P1 / RFU, AEBP2 / Fold change vs veh, AEBP2 / RFU, SNHG1 /// SNORD22 /// SNORD25 /// SNORD26 /// SNORD27 /// SNORD28 /// SNORD29 /// SNORD31 / Fold change vs veh, SNHG1 /// SNORD22 /// SNORD25 /// SNORD26 /// SNORD27 /// SNORD28 /// SNORD29 /// SNORD31 / Fold change (Aza/veh), C12orf56 (ProbeSet 11735607_a_at) / Fold change (ACY-1035/veh), C12orf56 (ProbeSet 11735607_a_at) / Fold change (Aza/veh), FGFR1OP (ProbeSet 11751329_s_at) / Fold change (ACY-1035/veh), FGFR1OP (ProbeSet 11751329_s_at) / Fold change (Aza/veh), VPS36 (ProbeSet 11739960_a_at) / Fold change (ACY-1035/veh), VPS36 (ProbeSet 11739960_a_at) / RFU SYPL1 (11715823_x_at) / Fold change /veh SYPL1 (11715823_x_at) / RFU IGFBP7 (11715501_s_at) / Fold change /veh IGFBP7 (11715501_s_at) / RFU REEP3 (11722064_at) / Fold change /veh REEP3 (11722064_at) / RFU IGLL1 (11728026_x_at) / Fold change /veh IGLL1 (11728026_x_at): dose or concentration left out as unconfirmed
# Details: ProbeSet 11760938_a_at; LIST D
compound,measurement,value
Nc1ncn([C@@H]2O[C@H](CO)[C@@H](O)[C@H]2O)c(=O)n1 [azacitidine],"RFU, MAT2A",129.03 RFU
